According to patent US20190269705A1, “METHODS AND MATERIALS FOR TREATING GRAFT VERSUS HOST DISEASE” (Regents of the University of Minnesota, priority 2017, published 2019):
“Also recorded” adds a separate entry of the source.

How the values were obtained:
[1] = system: stimulated CD4+ T cells; assay: 13C-glucose tracing of stimulated CD4 T cells (LC-HRMS); format: cell-based, mouse; conditions: 1 μM CB839, 13C-glucose, 24 hours
Method: ^13C-Glucose Activation: CD4 cells were activated on 5 μg/mL αCD3/CD28 for 3 days. At day 3, cells were pooled, washed 3× in PBS, and re-stimulated in presence of 1 μM CB839 or Vehicle (DMSO) and 11 mM ^13C glucose (Cambridge Isotope Labs, Cat #: CLM-1396-1). Cells were incubated for 24 hours at 37° C., then scraped and combined in triplicate. Cells were rinsed with 0.9% saline and metabolites were extracted in methanol. Metabolites measured by LC-High-Resolution Mass Spectrometer (LC-HRMS) using a Q-exactive machine. The time-dependent glucose labeling pattern was modeled as with the following equation: […]
^13C Tracing. To measure 13C-Glucose tracing in T cell activation, CD4 cells were stimulated on 5 μg/mL anti-CD3/CD28 for 3 days. At day 3, cells were pooled, washed 3× in PBS, and re-stimulated in presence of 1 uM CB839 or Vehicle (DMSO) and 11 mM 13C glucose (Cambridge Isotope Labs, Cat #: CLM-1396-1). Cells were incubated for 24 hours at 37 °C, then scraped and combined in triplicate. Cells were rinsed with 0.9% saline and metabolites were extracted in methanol. Metabolites measured by LC High-Resolution Mass Spectrometer (LC-HRMS) using a Q-Exactive machine as previously described(Liberti et al., 2017). The time-dependent glucose labeling pattern was modeled as with the following equation: […]

[2] = system: Eμ B ALL cells; assay: In vitro CAR T cell co-culture with target Eμ B ALL cells; format: cell-based, mouse; conditions: CAR-T cells treated with CB839 before co-culture
Description: T cells were isolated from wild type C57BL6 spleens using the Pan T Cell isolation kit (Cat #: 130-095-130) and were activated on anti-CD3 anti-CD28 coated plates with IL2 for four days with or without CB839. On days 1 and 2, T cells were transduced with retrovirus produced by Plat-E cells carrying the CAR construct targeting CD19 with GFP reporter. On day 4, CAR T cells were washed three times to remove any drug remnants and plated to equal concentrations on a 96 well plate at 5×10^5 cells per well and serial dilutions thereof. 5×10^5 Emu cells, a CD19+ B cell acute lymphoblastic leukemia cell line
(Generously provided by Dr. Davila Lab) were then added to every well to assay cell numbers. CD19+ and GFP+events were stained and counted by flow for each well after 72 hours.

[3] = system: CD19+ B cells; assay: In vivo CAR T cells treated ex vivo; design: species or system mouse; conditions: CAR-T cells treated with CB839 during in vitro transduction
Description: CAR T cells were produced as described elsewhere (see, e.g., Li et al., “Gammaretroviral Production and T Cell Transduction to Genetically Retarget Primary T Cells Against Cancer.” In: Lugli E, ed. T-Cell Differentiation: Methods and Protocols. New York, N.Y.: Springer New York; 2017:111-118). Briefly, spleen T cells were isolated from Thy1.1 B6 mice at day 0. Cells were then activated with mouse CD3/CD28 Dynabeads and 30 IU/ml recombinant human IL2. At day 1 and 2, cells were spin transduced twice with retrovirus carrying CARs. At day 3, cells were fed with fresh medium. At day 4, transduced T cells were harvested, beads removed, evaluated for viability, transduction efficiency, immune phenotype and ready for use. For CB839 treated CAR T cells, CB839 were added to the culture at day 1, 2 and 3 at 1 μM. For in vivo study, C57B6 mice (n=25) were i.p. injected with cyclophosphamide (CTX) at 300 mg/kg. Mice were i.v. injected with 3×10^5 CAR T cells one day after CTX injection. Peripheral blood (PB) samples were collected 1, 2, 4 and 6 weeks after CAR T injection, stained with B cell and T cell antibodies and subjected to flow cytometry. […]
CAR T cells were produced as previously described (Li et al., 2017). […] At day 4, transduced T cells were harvested, beads removed, evaluated for viability, transduction efficiency, immune phenotype and ready for use. […]

O=C(Cc1cccc(OC(F)(F)F)c1)Nc1ccc(CCCCc2nnc(NC(=O)Cc3ccccn3)s2)nn1 [CB839]
N-carbamoyl-aspartate [1]: decreased
TCA intermediates fractional labeling with glucose-derived 13C [1]: increased fractional labeling
TCA intermediates overall abundance [1]: reduced in overall abundance
aspartate levels [1]: decreased significantly
glucose-derived 13C in glutamate and aspartate [1]: increased in both glutamate and aspartate
glutamate [1]: decreased glutamate
glycine abundance [1]: unchanged
glycolytic intermediates abundance [1]: more abundant
intracellular glutamine [1]: increased intracellular glutamine
lactate levels and 13C-labeling [1]: unchanged
pyruvate abundance [1]: decreased
serine and alanine abundance [1]: also decreased
elimination of B cell leukemia cells in vitro [2]: greater ability to eliminate B cell leukemia cells in vitro
CAR-T cell accumulation / persistence in vivo [3]: accumulated in vivo to a greater extent; also recorded: enhances T cell persistence
elimination of CD19+ targets in vivo [3]: equivalently capable; also recorded: equally capable of eliminating CD19+ targets in vivo
